Source: patent US4175081A, “5-Substituted thiadiazole ureas” (priority 1977, dated 1979)

Experiments:
[1] = system: Turnip (TP); experiment: Pre-emergence herbicide test; assay type: in vivo, Brassica sp.; settings: Brassica rapa, pre-emergence, 336 h, two weeks after treatment
Outline: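 Turnip (Brassica sp.) seeds were surface sown in 3' plastic pots of potting soil, covered with a thin layer of screened soil, and sub-irrigated in greenhouse trays. Pots were seeded one day ahead of treatment, sprayed pre-emergence under a hood with a fixed nozzle and moving belt, then kept in the greenhouse.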

[2] = system: Yellow foxtail grass (YF); experiment: Post-emergence herbicide test; assay type: in vivo, Setaria glauca; settings: Setaria, 336 h, 2 lb/acre, two weeks after treatment
Outline: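 Potted seedlings grown in greenhouse, planting staggered to reach the target stage together, then sprayed post-emergence at 8 lbs actual compound/acre in 38 gallons/acre (4 lbs/acre formulations also prepared). Sub-irrigated afterwards. Injury or control rated visually two weeks after treatment.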

[3] = system: Barnyard grass (BG); experiment: Post-emergence herbicide test; assay type: in vivo; settings: Echinochloa crus-galli, 336 h, 2 lb/acre, two weeks after treatment
Outline: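 Greenhouse pot-grown barnyard grass seedlings sprayed post-emergence at 8 lbs active compound per acre (some at 4 lbs/acre) in 38 gallons per acre, then sub-irrigated. Injury or control rated visually two weeks after treatment.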

[4] = system: Barnyard grass (BG); experiment: Pre-emergence herbicide test; assay type: in vivo; settings: Echinochloa crus-galli, 336 h, two weeks after treatment
Outline: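 Barnyard grass surface-seeded in potting soil and sprayed pre-emergence one day after seeding, at 8 or 4 lb compound/acre in 38 gal/acre spray volume. Pots kept in greenhouse with sub-irrigation only; injury or control rated visually two weeks after treatment.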

[5] = system: Corn (CN); experiment: Post-emergence herbicide test; assay type: in vivo; settings: Zea mays, 336 h, two weeks after treatment
Outline: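 Greenhouse seedlings grown in potting soil and sprayed post-emergence at 8 lbs compound/acre (formulations also made for 4 lbs/acre) in 38 gallons/acre spray volume. Watering by sub-irrigation only. Injury or control rated visually two weeks after treatment.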

[6] = system: Cotton (CT); experiment: Post-emergence herbicide test; assay type: in vivo, Gossypium hirsutum var. DPL smooth leaf; settings: Gossypium hirsutum, post-emergence, 336 h, two weeks after treatment
Outline: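 Cotton (Gossypium hirsutum var. DPL smooth leaf) was grown in 3' plastic pots of potting soil, four seeds per pot, planted at a depth equal to the seed diameter and watered by sub-irrigation. At the stage of expanded cotyledons with the first true leaf 1' long, plants were sprayed post-emergence in a hood with a fixed nozzle over a moving belt. Percent control was rated visually two weeks later.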

[7] = system: Johnson grass (JG); experiment: Pre-emergence herbicide test; assay type: in vivo, Sorgum helepense; settings: Sorghum halepense, 336 h, two weeks after treatment
Outline: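 Pots seeded one day before spraying; compound applied pre-emergence at 8 lbs/acre (or 4 lbs/acre) in 38 gallons/acre spray volume. Sub-irrigated in greenhouse; injury/control rated visually two weeks after treatment.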

[8] = system: Johnson grass (JG); experiment: Post-emergence herbicide test; assay type: in vivo, Sorgum helepense; settings: Sorghum halepense, 336 h, two weeks after treatment
Outline: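 Greenhouse pot-grown seedlings sprayed post-emergence at 8 lbs compound per acre (some at 4 lbs/acre) in 38 gallons per acre spray volume. Sub-irrigated thereafter. Injury/control rated visually two weeks after treatment.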

[9] = system: Crabgrass (CG); experiment: Post-emergence herbicide test; assay type: in vivo, Digitaria sanquinalis; settings: Digitaria sanguinalis, post-emergence, 336 h, two weeks after treatment
Outline: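 Crabgrass (Digitaria sanquinalis) was surface seeded individually in 3' plastic pots of potting soil, covered with screened soil, and watered by sub-irrigation in greenhouse trays. Planting was staggered so seedlings reached the target stage together. Post-emergence sprays were applied in a hood with a removable belt and fixed nozzle, and control was visually rated two weeks after treatment.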

[10] = system: Crabgrass (CG); experiment: Pre-emergence herbicide test; assay type: in vivo, Digitaria sanquinalis; settings: Digitaria sanguinalis, pre-emergence, 336 h, two weeks after treatment
Outline: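 Crabgrass (Digitaria sanquinalis) was surface seeded in 3' plastic pots of potting soil, covered with screened soil, and watered by sub-irrigation in greenhouse trays. Pots were seeded one day before spraying in a hood with a moving belt and fixed nozzle. Plants stayed in the greenhouse on sub-irrigation, and pre-emergence control was rated visually two weeks after treatment.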

[11] = Acute oral toxicity in rats; settings: rat, in vivo
[12] = system: Amaranth pigweed (PW); experiment: Pre-emergence herbicide test; assay type: in vivo, Amaranthus retroflexus; settings: 336 h, 2 lb/acre, two weeks after treatment
Outline: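 Pigweed was surface-seeded in potted soil one day before spraying at 8 lbs compound per acre, or 4 lbs/acre, in 38 gallons per acre. Pots were kept in the greenhouse with sub-irrigation only; injury or control was rated visually two weeks after treatment.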

[13] = system: Turnip (TP); experiment: Post-emergence herbicide test; assay type: in vivo, Brassica sp.; settings: Brassica rapa, post-emergence, 336 h, two weeks after treatment
Outline: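 A greenhouse post-emergence herbicide test on turnip. Seeds were sown on the surface of potting soil in 3' plastic pots, lightly covered with screened soil and watered from below. Planting was timed so seedlings had 1 or 2 true leaves above the cotyledons at spraying, done in a hood with a fixed nozzle. Control or injury was scored by eye after two weeks.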

[14] = system: Corn (CN); experiment: Pre-emergence herbicide test; assay type: in vivo; settings: Zea mays, 336 h, two weeks after treatment
Outline: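 Four corn seeds per pot, sown at seed-diameter depth one day before spraying, got soil surface treatment at 8 lbs/acre (4 lbs/acre formulations also prepared) in 38 gallons/acre. Pots were greenhouse-held with sub-irrigation only. Injury or control was scored visually two weeks after treatment.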

[15] = system: Cotton (CT); experiment: Pre-emergence herbicide test; assay type: in vivo, Gossypium hirsutum var. DPL smooth leaf; settings: Gossypium hirsutum, 336 h, two weeks after treatment
Outline: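 Crop and weed species seeded one day before treatment, then sprayed pre-emergence at 8 lbs actual compound per acre (also 4 lbs/acre formulations) in 38 gallons per acre. Pots kept in greenhouse with sub-irrigation only; injury or control visually rated two weeks after treatment.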

[16] = system: Amaranth pigweed (PW); experiment: Post-emergence herbicide test; assay type: in vivo, Amaranthus retroflexus; settings: 336 h, 2 lb/acre, two weeks after treatment
Outline: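 Pot-grown pigweed was sprayed post-emergence at the 1–2 true-leaf stage with compound at rates equivalent to 8 lbs per acre (formulations also prepared for 4 lbs/acre) in 38 gallons per acre, using a hood with fixed nozzle. Plants were sub-irrigated in the greenhouse, and injury or control was rated visually two weeks after treatment.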

[17] = system: Bean (BN); experiment: Post-emergence herbicide test; assay type: in vivo, Phaseolus vulgaris var. Black Valentine; settings: Phaseolus vulgaris, post-emergence, 336 h, two weeks after treatment
Outline: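 Snapbean (Phaseolus vulgaris var. Black Valentine) was tested post-emergence. Four seeds were sown in 3' plastic pots of potting soil at a depth equal to the seed diameter, then sub-irrigated in greenhouse trays. Planting dates were staggered so plants were sprayed once primary leaves had expanded, with the growing point at the primary leaf nodes.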

[18] = system: Bean (BN); experiment: Pre-emergence herbicide test; assay type: in vivo, Phaseolus vulgaris var. Black Valentine; settings: Phaseolus vulgaris, 336 h, two weeks after treatment
Outline: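 Black Valentine bean was seeded in potting soil one day before spraying. Compound was applied pre-emergence at 8 lbs/acre (also 4 lbs/acre) in 38 gallons per acre. Plants were sub-irrigated and injury or control was rated visually after two weeks.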

[19] = system: Yellow foxtail grass (YF); experiment: Pre-emergence herbicide test; assay type: in vivo, Setaria glauca; settings: Setaria, 336 h, 2 lb/acre, two weeks after treatment
Outline: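 Seeds surface-sown in potting soil one day before spraying; compounds applied pre-emergence at 8 or 4 lbs/acre in 38 gallons/acre spray. Pots held in greenhouse with sub-irrigation only. Injury or control rated visually two weeks after treatment.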

**Q.** For `CNC(=O)Nc1nnc(C(C)(C)C)s1` [Example 86], which pest or weed control at 2241.7 g/ha ([1]; 2 lb/acre) is on record?
**A.** 100%

**Q.** What about the pest or weed control at 8966.8 g/ha ([1]; 8 lb/acre) of the same compound?
**A.** 100%

**Q.** What about the pest or weed control [2] of the same compound?
**A.** 70%

**Q.** What about the pest or weed control at 2241.7 g/ha [3] of the same compound?
**A.** 50%

**Q.** What about the pest or weed control at 2241.7 g/ha ([4]; 2 lb/acre) of the same compound?
**A.** 60%

**Q.** What about the pest or weed control at 8966.8 g/ha ([4]; 8 lb/acre) of the same compound?
**A.** 80%

**Q.** What about the pest or weed control ([5]; 2 lb/acre) of the same compound?
**A.** 40%

**Q.** And the pest or weed control at 8966.8 g/ha ([5]; 8 lb/acre)?
**A.** 100%

**Q.** And the pest or weed control at 2241.7 g/ha ([6]; 2 lb/acre)?
**A.** 100%

**Q.** What about the pest or weed control at 8966.8 g/ha ([6]; 8 lb/acre) of the same compound?
**A.** 100%

**Q.** And the pest or weed control at 2241.7 g/ha ([7]; 2 lb/acre)?
**A.** 60%

**Q.** And the pest or weed control at 8966.8 g/ha ([7]; 8 lb/acre)?
**A.** 50%

**Q.** And the pest or weed control ([8]; 2 lb/acre)?
**A.** 80%

**Q.** And the pest or weed control at 8966.8 g/ha ([8]; 8 lb/acre)?
**A.** 100%

**Q.** What about the pest or weed control ([9]; 2 lb/acre) of the same compound?
**A.** 50%

**Q.** What about the pest or weed control at 8966.8 g/ha ([9]; 8 lb/acre) of the same compound?
**A.** 80%

**Q.** What about the pest or weed control ([10]; 2 lb/acre) of the same compound?
**A.** 90%

**Q.** And the pest or weed control at 8966.8 g/ha ([10]; 8 lb/acre)?
**A.** 100%

**Q.** And the LD50 [11]?
**A.** 2700 mg/kg

**Q.** What about the pest or weed control at 2241.7 g/ha [12] of the same compound?
**A.** 100%

**Q.** What about the pest or weed control at 2241.7 g/ha ([13]; 2 lb/acre) of the same compound?
**A.** 100%

**Q.** What about the pest or weed control at 8966.8 g/ha ([13]; 8 lb/acre) of the same compound?
**A.** 100%

**Q.** What about the pest or weed control at 2241.7 g/ha ([14]; 2 lb/acre) of the same compound?
**A.** 10%

**Q.** What about the pest or weed control at 8966.8 g/ha ([14]; 8 lb/acre) of the same compound?
**A.** 60%

**Q.** And the pest or weed control at 2241.7 g/ha ([15]; 2 lb/acre)?
**A.** 10%

**Q.** What about the pest or weed control at 8966.8 g/ha ([15]; 8 lb/acre) of the same compound?
**A.** 50%

**Q.** And the pest or weed control at 2241.7 g/ha [16]?
**A.** 100%

**Q.** What about the pest or weed control at 2241.7 g/ha ([17]; 2 lb/acre) of the same compound?
**A.** 100%

**Q.** What about the pest or weed control at 8966.8 g/ha ([17]; 8 lb/acre) of the same compound?
**A.** 100%

**Q.** And the pest or weed control at 2241.7 g/ha ([18]; 2 lb/acre)?
**A.** 30%

**Q.** What about the pest or weed control at 8966.8 g/ha ([18]; 8 lb/acre) of the same compound?
**A.** 100%

**Q.** What about the pest or weed control at 2241.7 g/ha [19] of the same compound?
**A.** 90%
